Test results reported in patent publication US11655239B2 (SHANGHAI INSTITUTE OF MATERIAL MEDICA, CHINESE ACADEMY OF …, priority 2019, dated 2023).

Columns and labels:
[1] = molecular target: DDR2 (Homo sapiens (Human), UniProt Q16832); experiment: DDR2 enzyme activity test (ELISA); assay type: biochemical; details: read-out: DDR2 IC50
Description: The optical rotation and the inhibitory activity against DDR2 enzyme of the compounds S11-A and S11-B obtained by the resolution in Example 12, and the chirally synthesized compounds S11-A′ and S11-B′ in Example 13 were tested (referred to the operation in Effect example 1), and the results are shown in Table 3 below:
Detection method: Enzyme-linked immunosorbent assay (ELISA)
Test receptor tyrosine kinase: DDR2
The kinase used in the experiment was obtained by our laboratory using the insect baculovirus expression system to express and purify the recombinant protein containing the protein kinase region; polyglutamic acid-tyrosine peptide segment [Poly(Glu, Tyr) 4:1] and sodium vanadate were purchased from Sigma; the anti-phosphorylated monoclonal antibody PY99 was purchased from Santa Cruz; horseradish peroxidase labeled goat anti-murine secondary antibody was purchased from Calbiochem; ATP and OPD were purchased from Sangon Biotech (Shanghai) Co., Ltd.; the remaining reagents were purchased from Sinopharm Chemical Reagent Co., Ltd. The reaction ELISA plate (#2592) was purchased from Corning. The full-wavelength microplate reader for experiment reading was a product of Molecular Device, model: SpectraMax 190; the experimental water was distilled water produced by Sinopharm Group.
The compound was centrifuged at 12,000 g for 5 min, and DMSO was added to prepare a 10^-2M stock solution, which was vortexed evenly, then sonicated for 10 min and stored at −40° C. for later use. During the test, the compound was diluted with DMSO from the stock solution to 100 times the test concentration (the DMSO concentration in the system was 1%).
1) Enzyme reaction substrate Poly(Glu, Tyr) 4:1 was diluted to 20 μg/mL with potassium-free PBS (10 mM sodium phosphate buffer, 150 mM NaCl, pH 7.2-7.4), and the microtiter plate was coated with 125 μL/well and placed at 37° C. for 12-16 hours of reaction. The liquid in the well was discard. The plate was washed three times with T-PBS (potassium-free PBS containing 0.1% Tween-20, 200 μL/well), 5 minutes each time. The ELISA plate was dried in an oven at 37° C. for 1 to 2 hours.
2) Reaction buffer (50 mM HEPES pH 7.4, 50 mM MgCl2, 0.5 mM MnCl2, 0.2 mM Na3VO4, 1 mM DTT) diluted ATP solution (49 μL) was added to each well, 1 μL of the compound to be tested was added to each well, and then 50 μL of DDR2 kinase domain recombinant protein diluted in the reaction buffer was added to start the reaction. Two control wells without ATP were set in each experiment. The plate placed on a shaker (100 rpm) at 37° C. for 1 hour of reaction. The liquid in the well was discarded and the plate was washed three times with T-PBS.
3) Antibody PY99 dilution solution (the antibody was diluted 1:500 with T-PBS containing BSA 5 mg/mL) was added at 100 μL/well, and shaken on a shaker at 37° C. for 0.5 hour of reaction. The liquid in the well was discarded and the plate was washed three times with T-PBS.
4) Horseradish peroxidase labeled goat anti-murine secondary antibody dilution solution (the antibody is diluted 1:2000 with T-PBS containing BSA 5 mg/ml) was added at 100 μL/well, and shaken on a shaker at 37° C. for 0.5 hour of reaction. The liquid in the well was discarded and the plate was washed three times with T-PBS.
5) 2 mg/ml of OPD color developing solution [diluted with 0.1 M citric acid-sodium citrate buffer (pH=5.4) containing 0.03% H2O2] was added at 100 μL/well and reacted for 1 to 10 minutes at 25° C. in the dark.
6) 2M H2SO4 was added at 50 μL/well to stop the reaction, and a tunable wavelength microplate reader VERSAmax was used for reading at a wavelength of 490 nm.
The IC50 value was obtained by four-parameter regression using the software that came with the microplate reader.

[2] = tested on: bronchial epithelial cell line Beas-2B; experiment: Cytotoxic activity test (MTS), Beas-2B; assay type: cell-based, human; details: 10 μM
Description: Experimental objective: The cytotoxic activity of compound S15 on bronchial epithelial cell line Beas-2B and lung fibroblast cell line MRC-5 was tested.
1) The human bronchial epithelial cell line Beas-2B and the human embryonic lung fibroblast cell line MRC-5 were collected, and inoculated at a certain density (about 5000-10000 cells) on a 96-well plate (the edge wells were filled with sterile water or PBS). A control was set on each plate (100 μL of culture medium was added);
2) The plate was incubated overnight at 37° C., 5% CO2. The plate was turned upside down and observed under the microscope.
3) The solutions of different concentrations of the compounds to be tested were added to each well, and a control well (culture medium and MTS solution with cells but no drug) and a blank well (without cells, medium and MTS solution) were set, 3 to 5 repetition wells were set for each group. Incubation was performed at 37° C. for 48-72 hours.
4) 10 μL/well of MTS/PMS (20:1, Promega Corp) solution was added to each well containing 100 μL of culture medium, and then the plate was gently shaken. The plate was incubated at 37° C. for 2 to 4 hours.
5) M5 microplate reader (Molecular Device, USA) was used to measure the absorbance of the solution at 490 nm. […]

[3] = tested on: primary lung fibroblasts; experiment: Activation of myofibroblasts in primary lung fibroblasts isolated from mice; assay type: cell-based, mouse; details: primary lung fibroblasts isolated from mice of the experimental groups

DDR2, sequence (Q16832 563-849): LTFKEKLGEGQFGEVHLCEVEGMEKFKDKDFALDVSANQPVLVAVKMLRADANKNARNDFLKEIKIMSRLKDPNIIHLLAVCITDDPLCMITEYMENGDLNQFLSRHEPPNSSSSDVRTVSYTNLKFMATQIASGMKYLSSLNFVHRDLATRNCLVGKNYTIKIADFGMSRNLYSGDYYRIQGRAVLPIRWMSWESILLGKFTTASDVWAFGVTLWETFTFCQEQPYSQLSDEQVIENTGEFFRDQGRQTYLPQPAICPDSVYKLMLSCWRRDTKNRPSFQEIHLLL

Which IC50 [1] does the source give for O=C(Nc1cccc(C(F)(F)F)c1)c1ccc(C2CC2)c(-c2ccc3nc(Nc4cnn(C5CC5)c4)ncc3c2)c1 [Compound S15, 4-cyclopropyl-3-(2-((1-cyclopropyl-1H-pyrazol-4-yl)amino)quinazolin-6-yl)-N-(3-(trifluoromethyl)phenyl)benzamide] here?
Its IC50 is 6.1 ± 0.5 nM.

What about the “cytotoxic activity on Beas-2B” value [2] of the same molecule?
Its value is “almost no toxicity”.

What about the activation of myofibroblasts [3] of the same molecule?
The activation of myofibroblasts was “inhibit the activation of myofibroblasts in a dose-dependent manner”.
